Data on 27 compounds can be found in patent publication US8524700B2, “Tetrahydroisoquinoline sulfonamide derivatives, the preparation thereof, and the use of the same in therapeutics” (Sanofi, priority 2004, dated 2013).

Structures can show the parent of a compound that is named as a salt.

A word on the IC50: it is the concentration that inhibits the measured activity by half. Read a low IC50 as greater potency. By melting point is commonly meant the temperature of the solid-liquid transition. What is called Ki is a measure of affinity in units of concentration, obtained from inhibition or displacement.

T1 sequence (Q9Y5N1 whole entry): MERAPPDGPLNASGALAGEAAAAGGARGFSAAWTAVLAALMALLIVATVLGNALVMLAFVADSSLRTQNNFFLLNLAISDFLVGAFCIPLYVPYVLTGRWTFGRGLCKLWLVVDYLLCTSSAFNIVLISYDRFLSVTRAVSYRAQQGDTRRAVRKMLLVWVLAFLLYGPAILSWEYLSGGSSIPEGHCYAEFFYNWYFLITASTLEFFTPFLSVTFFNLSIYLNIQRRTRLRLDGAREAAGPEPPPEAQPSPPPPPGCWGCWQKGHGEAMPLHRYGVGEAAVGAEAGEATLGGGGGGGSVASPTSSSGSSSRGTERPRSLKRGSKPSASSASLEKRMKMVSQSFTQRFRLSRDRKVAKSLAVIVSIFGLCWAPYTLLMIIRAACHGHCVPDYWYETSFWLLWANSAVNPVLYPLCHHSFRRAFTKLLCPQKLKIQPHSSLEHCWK

One data set has as its target T1, human histamine H3 receptor transfected into CHO cells (Homo sapiens, UniProt Q9Y5N1).
T1 construct: expressed in transfected cells; host or cells: CHO cells
The data set can be described thus: cAMP formation assay, inhibition of R-α-methylhistamine agonism, CHO cells (EIA kit). Type of data set: cell-based. The conditions noted are these: human H3 in CHO cells, EIA kit (Amersham). As to the method:
The compounds of the invention of formula I were also subjected to a cAMP formation assay, on the human histamine H3 receptor transfected into CHO cells, by inhibition of the agonism caused by the specific binding of R-α-methylhistamine to this receptor, according to the methods described by T. W. Lovenberg et al., in J. Pharmacol. Exp. Ther. 293, 771-778 (2000).
By way of example, compound 15, included in Table 1, has an IC50<10 nM, using an EIA kit (Amersham) to measure cAMP formation, on the human histamine H3 receptor transfected into CHO cells, by inhibition of the agonism caused by the specific binding of R-α-methylhistamine to this receptor.
`CN1CCCC1CCNS(=O)(=O)c1ccc2c(c1)CN(CC1CCCCC1)CC2` (racemic) [compound 15, (+/−)-2-(cyclohexylmethyl)-N-[2-(1-methylpyrrolidin-2-yl)ethyl]-1,2,3,4-tetrahydroisoquinoline-7-sulfonamide] displayed an IC50 below 10000 pM.

In a further data set the test system is food intake. In words: food intake in rats fasting for 24 h. Type of data set: in vivo, Wistar rats. The conditions noted are these: 10 mg/kg i.p., during the first hour after administration, rats fasted 24 h. As to the method:
Furthermore, the compounds of the invention of formula I were subjected to in vivo tests showing their ability to reduce food intake in rats fasting for 24 h.
The experiments were carried out on Wistar rats. The rats were placed individually in transparent plastic cages 48×26, 5×21.5 cm. These cages were placed in a room insulated against any noise, at a temperature of 20 to 22° C., with a light cycle from 7 o'clock in the morning to 7 o'clock in the evening, the rats having free access to water and to the food.
Before the experiment was carried out, the rats were made to fast for 24 h, with access, however, to water ad libitum. On the day of the experiment, the carrier or the compound according to the present invention was administered i.p. or p.o., 15 or 30 minutes before a known amount of food (30 g) was made available.
Each hour, for 6 hours, the amount of food ingested by the rat was measured.
As for `CC(C)c1ccc(CN2CCc3ccc(S(=O)(=O)NCCC4CCCN4C)cc3C2)cc1` (racemic) [compound 24, (+/−)-2-(4-isopropylbenzyl)-N-[2-(1-methylpyrrolidin-2-yl)ethyl]-1,2,3,4-tetrahydroisoquinoline-7-sulfonamide], the “decrease of food intake” value is 54%.

Tested on in another data set: not given
Experiment: not given
Conditions: not given
Take `O=S(=O)(NCCCN1CCN(Cc2ccccc2)CC1)c1ccc2c(c1)CNCC2` (as salt: hydrochloride) [compound 17, N-[3-(4-benzylpiperazin-1-yl)propyl]-1,2,3,4-tetrahydroisoquinoline-7-sulfonamide]: the melting point is 244 to 249 °C.

The compound `COc1ccc(OC)c(CN2CCc3ccc(S(=O)(=O)NCCC4CCCN4C)cc3C2)c1` (racemic) (as salt: oxalate) [compound 31, (+/−)-2-(2,5-dimethoxybenzyl)-N-[2-(1-methylpyrrolidin-2-yl)ethyl]-1,2,3,4-tetrahydroisoquinoline-7-sulfonamide] showed a melting point of 87 to 90 °C.

In the case of `CC1CCCCN1CCCNS(=O)(=O)c1ccc2c(c1)CNCC2` (racemic) (as salt: hydrochloride), the melting point lay within 65 to 70 °C.

In turn, `CN1CCCC1CCNS(=O)(=O)c1ccc2c(c1)CN(CC1CC1)CC2` (racemic) (as salt: oxalate) [compound 22, (+/−)-2-(cyclopropylmethyl)-N-[2-(1-methylpyrrolidin-2-yl)ethyl]-1,2,3,4-tetrahydroisoquinoline-7-sulfonamide] came in with a melting point of 50 to 60 °C.

`Cc1cc(C)cc(CN2CCc3ccc(S(=O)(=O)NCCC4CCCN4C)cc3C2)c1` (racemic) (as salt: oxalate) [compound 34, (+/−)-2-(3,5-dimethyl-benzyl)-N-[2-(1-methylpyrrolidin-2-yl)ethyl]-1,2,3,4-tetrahydroisoquinoline-7-sulfonamide] had a melting point of 121 to 125 °C.

Compound `CCN(CC)CCCNS(=O)(=O)c1ccc2c(c1)CN(Cc1ccsc1)CC2` (as salt: oxalate) [compound 12, N-[3-(diethylamino)propyl]-2-(3-thienylmethyl)-1,2,3,4-tetrahydroisoquinoline-7-sulfonamide] yielded a melting point of 89 to 95 °C.

`CCN(CC)CCCNS(=O)(=O)c1ccc2c(c1)CN(CC1CC1)CC2` (as salt: oxalate) [compound 6, 2-(cyclopropylmethyl)-N-[3-(diethylamino)propyl]-1,2,3,4-tetrahydroisoquinoline-7-sulfonamide] yielded a melting point of 98 to 103 °C.

For the compound `O=S(=O)(NCCCN1CCCC1)c1ccc2c(c1)CNCC2` (as salt: hydrochloride) [compound 18, N-(3-pyrrolidin-1-ylpropyl)-1,2,3,4-tetrahydroisoquinoline-7-sulfonamide], the melting point was 237 to 241 °C.

In turn, `CCC(C)CN1CCc2ccc(S(=O)(=O)NCCC3CCCN3C)cc2C1` (racemic) (as salt: oxalate) [compound 32, (+/−)-2-(2-methylbutyl)-N-[2-(1-methylpyrrolidin-2-yl)ethyl]-1,2,3,4-tetrahydroisoquinoline-7-sulfonamide] yielded a melting point of 66 to 77 °C.

The compound `CN1CCc2ccc(S(=O)(=O)NCCCN3CC=CC3)cc2C1` (as salt: oxalate) [compound 16, N-[3-(2,5-dihydro-1H-pyrrol-1-yl)propyl]-2-methyl-1,2,3,4-tetrahydroisoquinoline-7-sulfonamide] showed a melting point of 99 to 104 °C.

The compound `CN(C)CCCNS(=O)(=O)c1ccc2c(c1)CNCC2` (as salt: hydrochloride) yielded a melting point of 230 to 234 °C.

`CCN(CC)CCCNS(=O)(=O)c1ccc2c(c1)CN(Cc1ccccc1)CC2` (as salt: oxalate) [compound 5, 2-benzyl-N-[3-(diethylamino)propyl]-1,2,3,4-tetrahydroisoquinoline-7-sulfonamide]: the melting point lay in the range of 91 to 95 °C.

In turn, `CN1CCCC1CCNS(=O)(=O)c1ccc2c(c1)CN(Cc1ccccc1)CC2` (racemic) (as salt: oxalate) [compound 23, (+/−)-2-benzyl-N-[2-(1-methylpyrrolidin-2-yl)ethyl]-1,2,3,4-tetrahydroisoquinoline-7-sulfonamide] registered a melting point of 77 to 82 °C.

With `CN1CCCC1CCNS(=O)(=O)c1ccc2c(c1)CN(Cc1ccc3c(c1)OCO3)CC2` (racemic) (as salt: oxalate) [compound 25, (+/−)-2-(1,3-benzodioxol-5-ylmethyl)-N-[2-(1-methylpyrrolidin-2-yl)ethyl]-1,2,3,4-tetrahydroisoquinoline-7-sulfonamide], the melting point lay within 106 to 109 °C.

Consider `CN1CCCC1CCNS(=O)(=O)c1ccc2c(c1)CN(Cc1ccc(Br)cc1)CC2` (racemic) (as salt: oxalate) [compound 30, (+/−)-2-(4-bromobenzyl)-N-[2-(1-methylpyrrolidin-2-yl)ethyl]-1,2,3,4-tetrahydroisoquinoline-7-sulfonamide], for which the melting point is 86 to 110 °C.

In turn, `O=S(=O)(NCCCN1CC=CC1)c1ccc2c(c1)CNCC2` (as salt: hydrochloride) [compound 13, N-[3-(2,5-dihydro-1H-pyrrol-1-yl)propyl]-1,2,3,4-tetrahydroisoquinoline-7-sulfonamide] displayed a melting point of 228 to 231 °C.

On to `O=S(=O)(NCCCN1CCOCC1)c1ccc2c(c1)CNCC2` (as salt: hydrochloride) [compound 19, N-(3-morpholin-4-ylpropyl)-1,2,3,4-tetrahydroisoquinoline-7-sulfonamide], for which the melting point fell in the range of 238 to 245 °C.

Consider `O=S(=O)(NCCCN1CC=CCC1)c1ccc2c(c1)CNCC2` (as salt: hydrochloride) [compound 9, N-[3-(3,6-dihydropyridin-1(2H)-yl)propyl]-1,2,3,4-tetrahydroisoquinoline-7-sulfonamide], for which the melting point was above 250 °C.

`O=S(=O)(NCCCN1CCCC1)c1ccc2c(c1)CN(CC1CCCCC1)CC2` (as salt: oxalate) [compound 21, 2-(cyclohexylmethyl)-N-(3-pyrrolidin-1-ylpropyl)-1,2,3,4-tetrahydroisoquinoline-7-sulfonamide] gave a melting point of 130 to 141 °C.

Take `COc1cccc(CN2CCc3ccc(S(=O)(=O)NCCC4CCCN4C)cc3C2)c1` (racemic) (as salt: oxalate) [compound 33, (+/−)-2-(3-methoxybenzyl)-N-[2-(1-methylpyrrolidin-2-yl)ethyl]-1,2,3,4-tetrahydroisoquinoline-7-sulfonamide]: the melting point fell in the range of 80 to 107 °C.

Turning to `CCN(CC)CCCNS(=O)(=O)c1ccc2c(c1)CN(Cc1cccs1)CC2` (as salt: oxalate) [compound 11, N-[3-(diethylamino)propyl]-2-(2-thienylmethyl)-1,2,3,4-tetrahydroisoquinoline-7-sulfonamide], the melting point lay in the range of 109 to 115 °C.

As to `CCN(CC)CCCNS(=O)(=O)c1ccc2c(c1)CN(CC1CCCCC1)CC2` (as salt: oxalate) [compound 7, 2-(cyclohexylmethyl)-N-[3-(diethylamino)propyl]-1,2,3,4-tetrahydroisoquinoline-7-sulfonamide], the melting point lay in the range of 144 to 147 °C.

With `CCN(CC)CCCNS(=O)(=O)c1ccc2c(c1)CN(C1CCCCC1)CC2` (as salt: oxalate) [compound 14, 2-cyclohexyl-N-[3-(diethylamino)propyl]-1,2,3,4-tetrahydroisoquinoline-7-sulfonamide], the melting point was 55 to 60 °C.

The compound `CC(C)c1ccc(CN2CCc3ccc(S(=O)(=O)NCCC4CCCN4C)cc3C2)cc1` (racemic) (as salt: oxalate) [compound 24, (+/−)-2-(4-isopropylbenzyl)-N-[2-(1-methylpyrrolidin-2-yl)ethyl]-1,2,3,4-tetrahydroisoquinoline-7-sulfonamide] showed a melting point of 103 to 110 °C.

Take `CCN(CC)CCCNS(=O)(=O)c1ccc2c(c1)CN(C(C)C)CC2` (as salt: oxalate) [compound 10, N-[3-(diethylamino)propyl]-2-isopropyl-1,2,3,4-tetrahydroisoquinoline-7-sulfonamide]: the melting point was in the range of 54 to 59 °C.

For another data set, the target named is native histamine H3 receptor (Rattus norvegicus, UniProt Q9QYN8). The data set can be described thus: in vitro affinity assay on native histamine H3 receptor, [3H]-N-α-methylhistamine binding, adult rat brain membrane preparation. Conditions: rat brain membranes, read-out: Ki with respect to H3 receptors. An excerpt: More particularly, the compounds of the invention are histamine H3-receptor antagonists. H3 receptors are known to those skilled in the art and their advantage in therapeutics has been described in the literature (“Histamine H3 receptor antagonists” Exp. Opinion Ther. Patents (2000) 10 (7):1045-1055). Thus, the compounds of the invention of formula I were subjected to an in vitro affinity assay on the native histamine H3 receptor in an adult rat brain membrane preparation, by specific binding of [^3H]-N-α-methylhistamine to this receptor, according to the methods described by A. Korte et al., in Biochem. Biophys. Res. Commun. 168, 979-986 (1990) and by R. E. West Jr. et al., in Mol. Pharmacol. 38, 610-613 (1990).
Chain of native histamine H3 receptor (Q9QYN8 1-397 isoform Q9QYN8-3): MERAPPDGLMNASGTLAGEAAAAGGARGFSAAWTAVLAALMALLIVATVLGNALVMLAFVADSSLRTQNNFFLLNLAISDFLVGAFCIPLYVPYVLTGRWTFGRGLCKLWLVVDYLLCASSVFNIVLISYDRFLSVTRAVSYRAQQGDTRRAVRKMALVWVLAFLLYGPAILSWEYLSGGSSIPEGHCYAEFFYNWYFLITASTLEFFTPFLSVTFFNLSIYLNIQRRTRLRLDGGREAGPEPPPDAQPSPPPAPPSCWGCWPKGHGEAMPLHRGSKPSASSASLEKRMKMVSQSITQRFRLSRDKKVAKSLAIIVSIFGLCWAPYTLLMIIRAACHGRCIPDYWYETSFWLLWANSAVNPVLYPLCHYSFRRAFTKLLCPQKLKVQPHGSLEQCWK
Turning to `CN1CCCC1CCNS(=O)(=O)c1ccc2c(c1)CN(CC1CCCCC1)CC2` (racemic) [compound 15, (+/−)-2-(cyclohexylmethyl)-N-[2-(1-methylpyrrolidin-2-yl)ethyl]-1,2,3,4-tetrahydroisoquinoline-7-sulfonamide], the inhibitory constant (Ki) came out at 300 pM.
